Data from ChEMBL document CHEMBL3885861, “Open TG-GATES”.

Organism: Rattus norvegicus
Experiment: Open TG-GATES - Regimen: Single
Format: toxicity, organism-based, Sprague-Dawley
Set-up: regimen Single, gender Male, age 6 weeks
Conditions: in vivo, po, 30 mg/kg, route gavage, dose level Low; for APTT / Bas / Eos / Fbg / Hb / Ht / Lym / MCH / MCHC / MCV / Mono / Neu / PT / Plat / RBC / Ret / WBC: tissue Blood; for KIDNEY_L / KIDNEY_R / KIDNEY_TOTAL: tissue Kidney; for LIVER: tissue Liver; for A/G / ALP / ALT / AST / BUN / CRE / Ca / Cl / DBIL / GLC / IP / K / LDH / Na / PL / RALB / TBIL / TC / TG / TP / gamma-GTP: tissue Plasma

Cc1cccc(Nc2ccccc2C(=O)O)c1C [MEFENAMIC ACID]
TERMINAL_BW (3 h): 215.4 g
APTT (3 h): 19 s
Bas (3 h): 0%
Eos (3 h): 1%
Fbg (3 h): 214.4 mg/dL
Hb (3 h): 13.3 g/dL
Ht (3 h): 37.7%
Lym (3 h): 79.6%
MCH (3 h): 22 pg
MCHC (3 h): 35.3%
MCV (3 h): 62.1 fL
Mono (3 h): 2.2%
Neu (3 h): 15.4%
PT (3 h): 12.4 s
Plat (3 h): 118.3 x10_4/uL
RBC (3 h): 607.2 x10_4/ul
Ret (3 h): 7.3%
WBC (3 h): 91.2 x10_2/uL
KIDNEY_L (3 h): 1 g
KIDNEY_R (3 h): 1 g
KIDNEY_TOTAL (3 h): 2 g
LIVER (3 h): 9.5 g
A/G (3 h): 1.6
ALP (3 h): 842.4 IU/L
ALT (3 h): 36.2 IU/L
AST (3 h): 68.8 IU/L
BUN (3 h): 11 mg/dL
CRE (3 h): 0.4 mg/dL
Ca (3 h): 10.7 mg/dL
Cl (3 h): 103.6 meq/L
DBIL (3 h): 0.074 mg/dL
GLC (3 h): 189.8 mg/dL
IP (3 h): 8.8 mg/dL
K (3 h): 4.1 meq/L
LDH (3 h): 197.4 IU/L
Na (3 h): 141.2 meq/L
PL (3 h): 134.8 mg/dL
RALB (3 h): 3.4 g/dL
TBIL (3 h): 0.1 mg/dL
TC (3 h): 73.4 mg/dL
TG (3 h): 49.2 mg/dL
TP (3 h): 5.4 g/dL
gamma-GTP (3 h): 1.2 IU/L
TERMINAL_BW (6 h): 213 g
APTT (6 h): 18.5 s
Bas (6 h): 0%
Eos (6 h): 1%
Fbg (6 h): 226.6 mg/dL
Hb (6 h): 13.4 g/dL
Ht (6 h): 37.4%
Lym (6 h): 76.8%
MCH (6 h): 22.3 pg
MCHC (6 h): 35.8%
MCV (6 h): 62.5 fL
Mono (6 h): 2.6%
Neu (6 h): 18.2%
PT (6 h): 12.6 s
Plat (6 h): 118.7 x10_4/uL
RBC (6 h): 599 x10_4/ul
Ret (6 h): 7.5%
WBC (6 h): 86.8 x10_2/uL
KIDNEY_L (6 h): 1 g
KIDNEY_R (6 h): 1 g
KIDNEY_TOTAL (6 h): 2 g
LIVER (6 h): 9.5 g
A/G (6 h): 1.7
ALP (6 h): 972 IU/L
ALT (6 h): 37.4 IU/L
AST (6 h): 65.2 IU/L
BUN (6 h): 9.8 mg/dL
CRE (6 h): 0.3 mg/dL
Ca (6 h): 10.5 mg/dL
Cl (6 h): 102.6 meq/L
DBIL (6 h): 0.07 mg/dL
GLC (6 h): 191.2 mg/dL
IP (6 h): 8.7 mg/dL
K (6 h): 4 meq/L
LDH (6 h): 168.4 IU/L
Na (6 h): 140.2 meq/L
PL (6 h): 136.6 mg/dL
RALB (6 h): 3.4 g/dL
TBIL (6 h): 0.1 mg/dL
TC (6 h): 77.8 mg/dL
TG (6 h): 58 mg/dL
TP (6 h): 5.4 g/dL
gamma-GTP (6 h): 1 IU/L
TERMINAL_BW (9 h): 211.9 g
APTT (9 h): 18.5 s
Bas (9 h): 0%
Eos (9 h): 1%
Fbg (9 h): 214.2 mg/dL
Hb (9 h): 13.3 g/dL
Ht (9 h): 37.1%
Lym (9 h): 79.8%
MCH (9 h): 21.4 pg
MCHC (9 h): 35.7%
MCV (9 h): 60 fL
Mono (9 h): 3%
Neu (9 h): 14.6%
PT (9 h): 12.9 s
Plat (9 h): 120.5 x10_4/uL
RBC (9 h): 621.4 x10_4/ul
Ret (9 h): 7.2%
WBC (9 h): 68.9 x10_2/uL
KIDNEY_L (9 h): 0.9 g
KIDNEY_R (9 h): 1 g
KIDNEY_TOTAL (9 h): 1.9 g
LIVER (9 h): 8.5 g
A/G (9 h): 1.6
ALP (9 h): 921.4 IU/L
ALT (9 h): 30.2 IU/L
AST (9 h): 62 IU/L
BUN (9 h): 10.8 mg/dL
CRE (9 h): 0.3 mg/dL
Ca (9 h): 10.5 mg/dL
Cl (9 h): 102.4 meq/L
DBIL (9 h): 0.066 mg/dL
GLC (9 h): 192.6 mg/dL
IP (9 h): 9.1 mg/dL
K (9 h): 3.8 meq/L
LDH (9 h): 164.8 IU/L
Na (9 h): 139.8 meq/L
PL (9 h): 140.2 mg/dL
RALB (9 h): 3.3 g/dL
TBIL (9 h): 0.1 mg/dL
TC (9 h): 79 mg/dL
TG (9 h): 42.8 mg/dL
TP (9 h): 5.3 g/dL
gamma-GTP (9 h): 1 IU/L
TERMINAL_BW (24 h): 227.6 g
APTT (24 h): 18.2 s
Bas (24 h): 0%
Eos (24 h): 1%
Fbg (24 h): 227.4 mg/dL
Hb (24 h): 13.4 g/dL
Ht (24 h): 38.5%
Lym (24 h): 76.2%
MCH (24 h): 22.3 pg
MCHC (24 h): 34.9%
MCV (24 h): 63.9 fL
Mono (24 h): 3.4%
Neu (24 h): 17.2%
PT (24 h): 11.9 s
Plat (24 h): 117.8 x10_4/uL
RBC (24 h): 604 x10_4/ul
Ret (24 h): 6.7%
WBC (24 h): 93.5 x10_2/uL
KIDNEY_L (24 h): 1 g
KIDNEY_R (24 h): 1 g
KIDNEY_TOTAL (24 h): 2 g
LIVER (24 h): 10.7 g
A/G (24 h): 1.5
ALP (24 h): 1061.2 IU/L
ALT (24 h): 42.2 IU/L
AST (24 h): 71 IU/L
BUN (24 h): 15 mg/dL
CRE (24 h): 0.4 mg/dL
Ca (24 h): 10.8 mg/dL
Cl (24 h): 102.8 meq/L
DBIL (24 h): 0.096 mg/dL
GLC (24 h): 205.4 mg/dL
IP (24 h): 7.6 mg/dL
K (24 h): 4.2 meq/L
LDH (24 h): 198 IU/L
Na (24 h): 139.6 meq/L
PL (24 h): 161 mg/dL
RALB (24 h): 3.5 g/dL
TBIL (24 h): 0.2 mg/dL
TC (24 h): 80.8 mg/dL
TG (24 h): 116.2 mg/dL
TP (24 h): 5.7 g/dL
gamma-GTP (24 h): 1.4 IU/L
